Here are results for 100 compounds from ChEMBL document CHEMBL3507680, “University of Dundee, Gates Library screen for HepG2 cell viability”.

Each structure is given as a SMILES string.

The data set can be described thus: Human HepG2 cell viability assay in 384 well format. Set-up: dose 125 nL, time 70.5 hour; cytotoxicity at 70.5 h: concentration not given beside the values. The following applies: HepG2 cells, read-out: Inhibition. It is filed as toxicity, cell-based.
On to `Fc1ccc(C2CCCCN2Cc2cc(-c3ccccn3)no2)cc1` (stereo not given), for which the cytotoxicity at 70.5 h came out at 17.8%.
With `CN(C)CCNC(=O)Cn1cnc2cc(NC(=O)C3CC3)ccc21`, the cytotoxicity at 70.5 h is -10.6%.
As to `COC(=O)c1ccc(C(=O)NS(=O)(=O)c2cncc(Br)c2)cc1`, the cytotoxicity at 70.5 h was -3.96%.
With `CCn1cc(N2Cc3nc(N4CCOCC4)ncc3C2=O)cn1`, the cytotoxicity at 70.5 h came to 2.67%.
As for `Cc1ccc2cc(C(=O)N3CCCN(C)CC3)ccc2n1`, the cytotoxicity at 70.5 h is -2.19%.
Regarding `CCC(Nc1ccc(CCN2CCOCC2)cc1)C(N)=O` (stereo not given), the cytotoxicity at 70.5 h is -19.6%.
For the compound `CC(c1nnc(-c2cccs2)o1)N1CCn2c(nnc2C2CC2)C1` (stereo not given), the cytotoxicity at 70.5 h is -0.792%.
In the case of `Cc1nc(C(C)C)ncc1C(=O)N1CCc2c(nc(N(C)C)[nH]c2=O)C1`, the cytotoxicity at 70.5 h is -4.39%.
In the case of `CCn1cc(CN2CCN(Cc3cccc(OC)c3)C(=O)C2)cc1C#N`, the cytotoxicity at 70.5 h is -1.17%.
With `C=C(C)CN(CC)Cc1nc(C)no1`, the cytotoxicity at 70.5 h was -6.47%.
Take `O=S1(=O)CCN(CCCc2ccc(Cl)cc2)CC1`: the cytotoxicity at 70.5 h was -6.76%.
For `CCc1noc(C(C)N(C)Cc2ccc(OC)c(OC)c2)n1` (stereo not given), the cytotoxicity at 70.5 h turned out to be 1.83%.
`Cc1cc(C)nc(N2CCC(Cn3cc(C(N)=O)cn3)CC2)n1`: the cytotoxicity at 70.5 h was -7.04%.
The same measure for `CC(C)C[C@H](N)c1nnc(SCC(N)=O)o1`: 24.4%; for `Cc1nc(-c2nnc[nH]2)sc1C(=O)N1CCCC1CC(C)(C)C` (stereo not given): -5.06%; for `O=C([C@@H]1CC[C@@H]2[C@@H](CCN2c2ncccn2)O1)N1CCCO1`: 11.8%.
To `CN(C)C(=O)CCC(=O)N1CCC2(CC1)COC2` belongs 12.8%; to `CCc1ncc(CN2CCN(c3cc(NC4CC4)nc(N)n3)CC2)cn1`, -15%; to `COCC[C@]1(O)CCN(c2ncc(Cl)cc2F)C[C@H]1C`, -12.3%.
As for `Cc1ncsc1C(=O)N1CC[C@@H]2[C@@H](CC1)OCCN2c1cccnc1`, the cytotoxicity at 70.5 h is -8.57%.
Regarding `Cc1nnc(N2CCCC2)c(C(N)=O)c1C`, the cytotoxicity at 70.5 h is -6.33%.
As to `Nc1cc(-c2cccc3c2CCNC3)ncn1`, the cytotoxicity at 70.5 h is -6.17%.
The same measure for `COc1ccc(C)cc1NC(=O)Nc1cnc(N2CCCC2)nc1`: 1.09%.
For `CCn1c(CNC(=O)c2ccc(N(C)C)nc2)nc2ccccc21`, the cytotoxicity at 70.5 h is -8.62%.
In the case of `COc1ccccc1N1CCCC(Nc2ncccn2)C1=O` (stereo not given), the cytotoxicity at 70.5 h was -3.79%.
Take `CCCS(=O)(=O)N1CCOC2(CCCN(c3ccccn3)C2)C1` (stereo not given): the cytotoxicity at 70.5 h was -13.3%.
Regarding `Cn1cc(C[C@H]2[C@H](N3CCOCC3)CCN2c2ncc(F)cn2)cn1`, the cytotoxicity at 70.5 h was determined as 3.47%.
Turning to `COc1cccc(-c2cc(C3CCCNC3)ccn2)c1` (stereo not given), the cytotoxicity at 70.5 h is 3.19%.
`Cc1ccc(OCC(=O)NS(=O)(=O)c2cccnc2)cc1C`: the cytotoxicity at 70.5 h was 23.3%.
Regarding `O=C(c1n[nH]cc1Cl)N1CCSCC1`, the cytotoxicity at 70.5 h is -9.46%.
As to `CCc1nnc2n1CCN(C(=O)c1ccc(C)c(S(N)(=O)=O)c1)C2`, the cytotoxicity at 70.5 h was -1.49%.
For the compound `COCC(=O)N1CCN(c2ncnc3cccc(F)c23)CC1`, the cytotoxicity at 70.5 h stood at 0.217%.
The same measure for `Cc1nc(N2CCOCC2)nc(C)c1NC(=O)c1ccco1`: 3.55%; for `O=C(C1CC1)N1CC[C@@H]2[C@H](CC1)N(Cc1cccnc1)CCS2(=O)=O`: -2.85%.
Consider `FC(F)(F)c1cccnc1N1CCC(OC2CCOCC2)CC1`, for which the cytotoxicity at 70.5 h was -6.19%.
Turning to `Cc1cnc(CN2CCCC(c3cc(C(N)=O)[nH]n3)C2)o1` (stereo not given), the cytotoxicity at 70.5 h was determined as 9.27%.
As to `COc1ccc(CN(C)C(=O)CN2CC(n3cccn3)C2)cc1F`, the cytotoxicity at 70.5 h is -0.231%.
The same measure for `O=S(=O)(Nc1ccon1)c1cc(Cl)cc2c1OCC2`: 1.46%; for `Cc1nn(C(C)C)c2cn(CC(=O)NC3CCSCC3)nc12`: -3.25%; for `CNc1ccccc1C(=O)N(C)CCc1ccccc1`: -5.46%.
As for `COc1ccc(-n2ccc(CNCc3cccc(OC)c3)n2)cc1`, the cytotoxicity at 70.5 h was 23.7%.
Regarding `CCc1nnc(C(C)N2CCCN(C(=O)Oc3ccccc3)CC2)o1` (stereo not given), the cytotoxicity at 70.5 h stood at 2.06%.
Turning to `CSCCCN1C[C@H](NC(=O)c2ccc(CO)cc2)[C@@H](C2CC2)C1`, the cytotoxicity at 70.5 h is -9.41%.
For `CCOC(=O)N1CCNC(c2cccs2)C1` (stereo not given), the cytotoxicity at 70.5 h came to 21.8%.
The same measure for `CCOCCCC(=O)NC1CCN(C(C)c2ccccc2)CC1` (stereo not given): -5.8%.
To `CC(Cn1cccn1)NCc1nc(-c2ccccc2Cl)no1` (stereo not given) belongs -19.9%; to `C[C@@H]1CN(C2(C(=O)N3CCOCC3)Cc3ccccc3C2)C[C@H](C)O1`, 2.82%; to `O=C(COc1coc(CN2CCSCC2)cc1=O)c1ccccc1`, -24.2%.
As for `O=C(O)[C@@H]1CN(Cc2ccc(-c3cc[nH]n3)s2)C[C@H]1C1CC1`, the cytotoxicity at 70.5 h was -4.26%.
Turning to `Cc1noc([C@H]2C[C@H]3OCC[C@H]3N(Cc3ccc(F)cc3)C2)n1`, the cytotoxicity at 70.5 h was -8.23%.
For the compound `CSC1(CNC(=O)NC(C)Cc2cccc(F)c2)CCOCC1` (stereo not given), the cytotoxicity at 70.5 h is 0.72%.
Consider `CCSc1ccccc1C(=O)NCCn1nc(-n2cncn2)ccc1=O`, for which the cytotoxicity at 70.5 h was -10.2%.
To `Cc1cccc(C2CCCN(C(=O)CN3C(=O)CCNC3=O)C2)c1` (stereo not given) belongs -13.9%; to `O=C(NCc1ncc[nH]1)c1c(F)cccc1I`, 11.2%; to `CCOc1c(Br)cc(C2C3=C(COC3=O)Nc3[nH]nc(C)c32)cc1OC` (stereo not given), 29.2%.
As to `CCc1ncc2c(n1)CN(Cc1nc(-c3ccoc3)no1)CC2`, the cytotoxicity at 70.5 h is -3.42%.
With `COCCN1CCC(NCc2cccnc2)C1` (stereo not given), the cytotoxicity at 70.5 h stood at 2.68%.
Consider `CCN(CC)c1ncc2c(c1C(=O)O)CCN(C1CCOC1)C2` (stereo not given), for which the cytotoxicity at 70.5 h stood at 3.75%.
As to `Cn1cccc1C(=O)NCc1cn2c(n1)CN(CC1CCOCC1)CC2`, the cytotoxicity at 70.5 h was -78.7%.
The same measure for `Cc1cccnc1NC(=O)C1(n2cnnn2)CCCCC1`: -30.1%.
As for `CCC(C)(C)NC(=O)c1ccc(-c2ccco2)[nH]c1=O`, the cytotoxicity at 70.5 h amounted to 0.821%.
For the compound `Cc1ccc(CN2CCc3[nH]nc(C(=O)N(C)C)c3C2)o1`, the cytotoxicity at 70.5 h is -0.827%.
For the compound `COc1ccccc1N1CCN(C(=O)NC(C)c2nncn2C)CC1` (stereo not given), the cytotoxicity at 70.5 h was -5.73%.
For the compound `Cc1ccc(CNC(=O)CN2CCN(CC(O)c3ccco3)CC2)cc1` (stereo not given), the cytotoxicity at 70.5 h was determined as 29.2%.
Turning to `Cn1ccc(C(=O)NCc2cccc(CN3CCCC3)c2)cc1=O`, the cytotoxicity at 70.5 h is -3.99%.
Consider `Cc1csc(N2CCCN(Cc3noc(C)n3)CC2)n1`, for which the cytotoxicity at 70.5 h was -1.5%.
With `CSC1=Nc2c(cnn2-c2ccc(Cl)cc2)C2=NCCCN12`, the cytotoxicity at 70.5 h was -7.03%.
Take `Cn1nnnc1SCCNC(=O)C1CCN(C(=O)C2CCC2)CC1`: the cytotoxicity at 70.5 h was -5.55%.
The same measure for `NC1CCc2nc(-c3ccncc3)nc(Nc3cccc(F)c3)c2C1` (stereo not given): 9.56%; for `CCN1CCCN(C(=O)c2cnc(OC(C)C)c(Cl)c2)CC1`: 9.31%.
On to `O=C(NCC1CCOC1)c1cc(-c2cccc(Cl)c2)on1` (stereo not given), for which the cytotoxicity at 70.5 h is -5.03%.
In the case of `Cc1cccc(Oc2ccccc2CNC(=O)C2CCNC(=O)C2)c1` (stereo not given), the cytotoxicity at 70.5 h was -6.18%.
For the compound `COc1ccc(N(CCC(N)=O)C(=O)CSc2ccc(Cl)cc2)cc1`, the cytotoxicity at 70.5 h was -0.942%.
The same measure for `CN1CCCC1(CCCc1cccnc1)C(=O)NCc1nccn1C` (stereo not given): -1.26%; for `O=C(CCc1cc2n(n1)CCCN(Cc1ccccc1F)C2)NC1CC1`: 0.504%; for `O=C(C1CCCO1)N1CCC2(CC1)COCCN(Cc1cccnc1)C2` (stereo not given): -2.16%.
For `Cn1cc(C2(C)CN(Cc3ccc(Cl)c(F)c3)CCO2)cn1` (stereo not given), the cytotoxicity at 70.5 h was -7.47%.
The same measure for `O=C(CCc1cc2n(n1)CCN(Cc1ncc[nH]1)C2)N1CCCC1`: 2.55%.
As for `CC(C)N(C)Cc1cc(=O)n2c(n1)CN(C(=O)c1cnccn1)CCC2`, the cytotoxicity at 70.5 h was 4.66%.
As for `CN1CC[C@H](N(Cc2ccccc2)Cc2ccccc2)C[C@H](O)C1`, the cytotoxicity at 70.5 h was 11.2%.
As to `CCOC(=O)CN(CC(F)(F)F)C(=O)c1nc(C)n2ccccc12`, the cytotoxicity at 70.5 h was -15.3%.
As for `Cc1c[nH]c(C2CN(Cc3ccccc3C(=O)O)CCO2)n1` (stereo not given), the cytotoxicity at 70.5 h was -1.83%.
For `O=C(CCNC(=O)c1ccoc1)NCc1ccccc1F`, the cytotoxicity at 70.5 h is -11%.
Regarding `Cc1nccn1-c1ncccc1CNC(=O)c1ccc(O)nc1`, the cytotoxicity at 70.5 h is -10.6%.
The same measure for `COc1ncc(NCc2cc(C#N)cs2)cc1C(N)=O`: -5.52%; for `CC(C)(C)OC(=O)N1CCCCC1C(=O)NCc1cc[nH]n1` (stereo not given): -7.48%; for `O=C(O)[C@@H]1CN(C(=O)c2ccc(F)c(F)c2)C[C@H]1c1cccc(F)c1`: -11.2%.
As to `CS(=O)(=O)c1cn[nH]c1C1CCCCN1C(=O)Cc1cccnc1` (stereo not given), the cytotoxicity at 70.5 h was determined as 5.76%.
As for `CS(=O)(=O)NC1CCN(C(=O)COCc2ccccc2)CC1`, the cytotoxicity at 70.5 h was found to be 18.3%.
`CC1(C)Cc2ccccc2-c2nc(NCCO)[nH]c(=O)c21`: the cytotoxicity at 70.5 h was -8.18%.
The same measure for `CN(Cc1ccncc1)C1COC2(CCN(Cc3ccco3)CC2)C1` (stereo not given): 9.94%.
Take `Cc1nc2c(c(=O)[nH]1)CCN(C(=O)c1cccc3nccnc13)C2`: the cytotoxicity at 70.5 h is 0.0996%.
Turning to `COCCO[C@H]1CCN(Cc2ccoc2)[C@H]1Cc1cccnc1`, the cytotoxicity at 70.5 h is -0.128%.
To `COCC(=O)N1CC[C@]2(O)CCN(Cc3ccsc3)C[C@@H]2C1` belongs -7.01%; to `CS(=O)(=O)CCCNC1(c2ccc(Br)cc2)CCC1`, -5.79%.
The same measure for `CC(C)OCCCN(Cc1cnn(C)c1)Cc1ccccn1`: 21.5%; for `O=S1(=O)NC(c2ccnc(N3CCOCC3)n2)=Nc2ccccc21`: -9.53%.
With `Cc1cc(N2CCN(Cc3ccccc3)CC(O)C2)nc(N)n1` (stereo not given), the cytotoxicity at 70.5 h is -2.11%.
The same measure for `CCc1nc(NC(=O)N(C)Cc2ccoc2)nn1C`: -1.12%; for `CC(=O)NC(Cc1c[nH]c2cc(F)ccc12)C(=O)Nc1nonc1C` (stereo not given): 22%.
